This note sets out measurements from PMC6934184, “Selective DNA-PKcs inhibition extends the therapeutic index of localized radiotherapy and chemotherapy” (The Journal of Clinical Investigation, 2019).

This assay concerns the target T1, EPHA4 (Homo sapiens, UniProt P54764).
T1 construct: purchased Thermo Fisher Scientific (Life Technologies) SelectScreen
Put plainly: SelectScreen Z'LYTE. The class given is biochemical. In outline: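 NU5455 was profiled across the SelectScreen Broad panel of kinase activity and binding assays. Z'LYTE reactions such as CSF1R ran at apparent Km ATP, while the Adapta CAMK1 assay used ATP listed as 10. Values are given as percent.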

Structures are written as SMILES.

T1 sequence (P54764 20-986): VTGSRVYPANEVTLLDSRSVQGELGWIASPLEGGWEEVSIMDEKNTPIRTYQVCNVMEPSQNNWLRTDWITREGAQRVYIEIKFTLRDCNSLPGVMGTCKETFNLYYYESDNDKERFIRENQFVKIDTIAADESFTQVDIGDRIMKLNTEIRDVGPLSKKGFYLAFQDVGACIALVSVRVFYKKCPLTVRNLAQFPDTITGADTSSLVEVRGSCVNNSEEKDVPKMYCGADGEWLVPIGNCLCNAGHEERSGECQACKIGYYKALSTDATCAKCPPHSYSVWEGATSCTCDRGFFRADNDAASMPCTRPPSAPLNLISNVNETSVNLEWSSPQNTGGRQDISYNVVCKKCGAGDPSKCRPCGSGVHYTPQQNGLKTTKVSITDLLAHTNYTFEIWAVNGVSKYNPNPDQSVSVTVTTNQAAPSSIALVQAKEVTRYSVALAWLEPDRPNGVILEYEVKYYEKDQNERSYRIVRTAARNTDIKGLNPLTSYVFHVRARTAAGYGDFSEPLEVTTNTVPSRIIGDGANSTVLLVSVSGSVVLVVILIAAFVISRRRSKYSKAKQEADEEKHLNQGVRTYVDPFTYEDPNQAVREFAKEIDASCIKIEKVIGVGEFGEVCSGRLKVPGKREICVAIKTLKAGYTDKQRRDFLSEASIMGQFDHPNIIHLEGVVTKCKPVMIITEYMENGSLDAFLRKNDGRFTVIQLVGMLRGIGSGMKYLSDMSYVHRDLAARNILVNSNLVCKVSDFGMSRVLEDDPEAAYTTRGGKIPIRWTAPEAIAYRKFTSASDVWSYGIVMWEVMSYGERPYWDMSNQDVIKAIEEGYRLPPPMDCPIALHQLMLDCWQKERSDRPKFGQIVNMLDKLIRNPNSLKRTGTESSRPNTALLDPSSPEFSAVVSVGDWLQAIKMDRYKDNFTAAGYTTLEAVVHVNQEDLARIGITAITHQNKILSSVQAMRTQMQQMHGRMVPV

What is called inhibition is the change of the read-out against control, counted positive when it falls. A low value points to a response near the control. `CN(C(=O)CN1CCOCC1)c1ccc2sc3c(-c4cccc5c(=O)cc(N6CC7CCC(C6)O7)oc45)cccc3c2c1` [NU5455] displayed an inhibition at 1 µM of 2.9%.
